Residues, ends and D or L forms follow the SMILES beside them.

For test [1], the target named is T1, HLA-A*0201 (Homo sapiens, UniProt P04439, D140Y/D185E/D98H/E176V/E277Q/G131W/G231S/I119V/I121R/I166T/I218V/L300P/L318F/N151K/N90K/P208A/P217A/Q86G/Q94H/R138H/R169H/T345S). Put plainly: biochemical. In kind it is binding. To be noted: peptide concentration giving 50% of optimal binding; 10^−4 to 10^−9 M, 21° C. for 18 h; read-out: Affinity (ED50).
Test [2] addresses T2, HLA A*0201 on CEM.T2 cell line (Homo sapiens, UniProt P04439, D140Y/D185E/D98H/E176V/E277Q/G131W/G231S/I119V/I121R/I166T/I218V/L300P/L318F/N151K/N90K/P208A/P217A/Q86G/Q94H/R138H/R169H/T345S).
T2 construct: This cell line expresses HLA A*0201 but is deficient for TAP transporter; endogenous in cells; host or cells: CEM.T2 (T2) cell line
Put plainly: Cellular binding assay, HLA stabilization on CEM.T2 cells. Conditions: 100 μM peptide, 37° C. for 4 h, FACS anti HLA-A2; relative to HBV positive control peptide. In kind it is cell-based. The protocol: The CEM.T2 cell line (T2) is defective in the processing of proteins for presentation by MHC class 1 molecules. This cell line expresses HLA A*0201 but is deficient for TAP transporter. T2 is classically used to assess the Peptide/HLA-A*0201 Complex Stability[H. W. Nijman et al., 1993]
For HLA-A2*0201 stabilization, T2 cells (2×10^5/well) were incubated in serum-free RPMI (Gibco®-France) with 100 μM of selected peptide, at 37° C. for 4 h. Cells were washed two times with PBS supplemented with 1% BSA and stained with fluorescein isothiocyanate-conjugated anti HLA-A2 (Clone BB7.2) (BD Bioscience Pharmingen-France-) at 4° C. for 45 min. After 3 washes, cells were fixed in PBS supplemented with 2% paraformaldehyde and analyzed by FACS (FACScan, BD Bioscience). The percentage of peptide binding was calculated as follows: % Binding={(MFI peptide sample−MFI Neg control)/(MFI Pos control−MFI Neg control)}×100
Negative control was done without peptide.

Test [3] concerns the target T1, HLA-A*0201. Put plainly: iTOPIA EDS MHC peptide binding assay. Conditions: HLA-A*0201 monomer, relative to positive control peptide, 21° C. for 18 h. From the text:
MHC peptide binding assay using iTOPIA EDS
Microtiter 96 well plates containing HLA class I MHC monomer loaded with the human β2-microglobulin and a “placeholder” peptide were used to evaluate peptide binding, affinity, and off-rate.
The 502 nectin4 nonapeptides were first evaluated for their ability to bind to each MHC molecule in the peptide binding assay. In this assay, the placeholder peptides were stripped from the MHC class I monomer complexes coated on plastic, which leaves the MHC class I heavy chain available as a binding partner for candidate peptides in the presence of human β2-microglobulin.
Peptide binding was performed at 21° C. for 18 h. Revelation was done using an anti HLA-ABC-FITC mAb that binds to refolded MHC complex conformation. The relative fluorescent intensity was read using a fluorimeter (Molecular Devices, SpectraMax Gemini, Sunnyvale, Calif., USA).
Peptides with a binding>30% of the positive control peptide were selected as “binder” and subsequently analyzed for affinity (ED50) and off-rate (T1/2).

For test [4], the target named is T2, HLA A*0201 on CEM.T2 cell line. In words: Cellular dissociation assay on CEM.T2 cells. In kind it is cell-based. To be noted: after Brefeldin A 1 h and 3 h in serum-free RPMI at 37° C. (4 h). The protocol: Cellular Dissociation Assay
After HLA-A2*0201 stabilization with peptides at 37° C. for 4 h, T2 cells were incubated for 1 h, in serum-free RPMI containing Brefeldin A (10 μg/ml), an inhibitor of the transport of secretory and lysosomal proteins [G. J. Strous et al., 1993]. After 3 washes, T2 cells were incubated for 3 h in serum-free RPMI at 37° C. Binding was then measured by FACS and after 4 h incubation. Percentage of Residual Binding (% RB) was calculated as follows: […]

Test [5] deals with T1, HLA-A*0201. Put plainly: iScore calculation (iTOPIA system software). Conditions: multiparametric score of binding, off-rate and affinity.

In the case of `CC[C@H](C)[C@H](N)C(=O)N[C@@H](CC(C)C)C(=O)N[C@@H](Cc1c[nH]cn1)C(=O)N[C@H](C(=O)N[C@@H](CO)C(=O)N[C@@H](Cc1ccccc1)C(=O)N[C@@H](CC(C)C)C(=O)N[C@@H](C)C(=O)N[C@@H](CCC(=O)O)C(=O)O)C(C)C` [Peptide 239] (H-ILHVSFLAE-OH; N-terminus and C-terminus assumed), the EC50 on HLA-A*0201 [1] was found to be 200 nM. Besides, in test [2], the “CEM.T2 % Binding” value stood at 10%. In addition, the “% Binding” value at HLA-A*0201 [3] was determined as 61%. In addition, the “CEM.T2 % Residual Binding” value in test [4] was found to be 0%. In addition, at HLA-A*0201 [5], the iScore is recorded as 0.51.

As for `CC(C)C[C@H](NC(=O)[C@H](CC(C)C)NC(=O)[C@H](CC(C)C)NC(=O)[C@@H](N)CC(C)C)C(=O)N[C@@H](C)C(=O)N[C@@H](CO)C(=O)N[C@@H](Cc1ccccc1)C(=O)N[C@H](C(=O)NCC(=O)O)[C@@H](C)O` [Peptide 19] (H-LLLLASFTG-OH; N-terminus and C-terminus assumed), the EC50 at HLA-A*0201 [1] stood at 60 nM. Also, the “CEM.T2 % Binding” value in test [2] worked out at 17%. The “% Binding” value at HLA-A*0201 [3] turned out to be 75%. Further, the “CEM.T2 % Residual Binding” value in test [4] is on record as 0%. For the same compound, the iScore on HLA-A*0201 [5] is 0.659.

For `CC(C)C[C@H](NC(=O)[C@H](CS)NC(=O)[C@H](Cc1ccccc1)NC(=O)[C@H](CC(C)C)NC(=O)[C@@H](N)CC(C)C)C(=O)N[C@@H](CC(C)C)C(=O)N[C@H](C(=O)N[C@H](C(=O)N[C@H](C(=O)O)C(C)C)C(C)C)C(C)C` [Peptide 359] (H-LLFCLLVVV-OH; N-terminus and C-terminus assumed), the EC50 at HLA-A*0201 [1] came out at 500 nM. In test [2], the “CEM.T2 % Binding” value turned out to be 7%. Also, at HLA-A*0201 [3], the “% Binding” value is 67%. For the same compound, the “CEM.T2 % Residual Binding” value in test [4] is on record as 23%. Further, the iScore on HLA-A*0201 [5] is 0.674.

Turning to `CC(C)C[C@H](NC(=O)[C@H](Cc1c[nH]cn1)NC(=O)[C@H](Cc1ccccc1)NC(=O)[C@H](CCC(=O)O)NC(=O)[C@H](CO)NC(=O)[C@@H](NC(=O)[C@@H](NC(=O)[C@H](C)N)C(C)C)[C@@H](C)O)C(=O)N[C@H](C(=O)O)C(C)C` [Peptide 203] (H-AVTSEFHLV-OH; N-terminus and C-terminus assumed), the EC50 on HLA-A*0201 [1] was 400 nM. Moreover, the “CEM.T2 % Binding” value in test [2] came out at 48%. Also, the “% Binding” value on HLA-A*0201 [3] turned out to be 64%. The “CEM.T2 % Residual Binding” value in test [4] is given as 0%. On HLA-A*0201 [5], the iScore is listed as 0.533.

For `CC(C)C[C@H](N)C(=O)N[C@H](C(=O)N[C@@H](CO)C(=O)N[C@@H](C)C(=O)N[C@@H](CO)C(=O)N[C@H](C(=O)N[C@H](C(=O)N[C@H](C(=O)N[C@H](C(=O)O)C(C)C)C(C)C)C(C)C)C(C)C)C(C)C` [Peptide 345] (H-LVSASVVVV-OH; N-terminus and C-terminus assumed), on HLA-A*0201 [1], the EC50 is 60 nM. Moreover, in test [2], the “CEM.T2 % Binding” value came out at 11%. Further, the “% Binding” value on HLA-A*0201 [3] turned out to be 51%. Further, the “CEM.T2 % Residual Binding” value in test [4] amounted to 0%. Also, on HLA-A*0201 [5], the iScore is 0.626.

As for `CSCC[C@H](NC(=O)[C@H](C)N)C(=O)N[C@@H](CC(C)C)C(=O)N[C@@H](CCCCN)C(=O)N[C@@H](CS)C(=O)N[C@@H](CC(C)C)C(=O)N[C@@H](CO)C(=O)N[C@@H](CCC(=O)O)C(=O)NCC(=O)O` [Peptide 266] (H-AMLKCLSEG-OH; N-terminus and C-terminus assumed), the EC50 at HLA-A*0201 [1] was 700 nM. Moreover, the “CEM.T2 % Binding” value in test [2] was 31%. Further, on HLA-A*0201 [3], the “% Binding” value came to 74%. Also, in test [4], the “CEM.T2 % Residual Binding” value is recorded as 39%. The iScore at HLA-A*0201 [5] is reported as 0.667.

Regarding `CSCC[C@H](NC(=O)[C@@H](N)CO)C(=O)N[C@@H](CC(N)=O)C(=O)NCC(=O)N[C@@H](CCC(N)=O)C(=O)N1CCC[C@H]1C(=O)N[C@@H](CC(C)C)C(=O)N[C@H](C(=O)N[C@@H](CS)C(=O)O)[C@@H](C)O` [Peptide 215] (H-SMNGQPLTC-OH; N-terminus and C-terminus assumed), the EC50 at HLA-A*0201 [1] turned out to be 700 nM. Besides, in test [2], the “CEM.T2 % Binding” value was 21%. Also, at HLA-A*0201 [3], the “% Binding” value is 81%. The “CEM.T2 % Residual Binding” value in test [4] stood at 0%. In addition, the iScore at HLA-A*0201 [5] was 0.689.

For `CC(C)C[C@H](NC(=O)[C@@H](N)Cc1ccccc1)C(=O)N[C@@H](C)C(=O)N[C@@H](CCC(=O)O)C(=O)N[C@@H](C)C(=O)N[C@@H](CO)C(=O)N[C@H](C(=O)N[C@@H](CCCNC(=N)N)C(=O)NCC(=O)O)C(C)C` [Peptide 244] (H-FLAEASVRG-OH; N-terminus and C-terminus assumed), the EC50 at HLA-A*0201 [1] was 700 nM. Besides, the “CEM.T2 % Binding” value in test [2] was determined as 12%. Besides, the “% Binding” value at HLA-A*0201 [3] was 78%. Also, the “CEM.T2 % Residual Binding” value in test [4] came out at 0%. Moreover, the iScore at HLA-A*0201 [5] is 0.533.

For `CC(C)C[C@H](NC(=O)[C@H](C)NC(=O)[C@H](C)N)C(=O)N[C@@H](CC(C)C)C(=O)N[C@@H](Cc1ccccc1)C(=O)N[C@@H](CS)C(=O)N[C@@H](CC(C)C)C(=O)N[C@@H](CC(C)C)C(=O)N[C@H](C(=O)O)C(C)C` [Peptide 357] (H-AALLFCLLV-OH; N-terminus and C-terminus assumed), the EC50 on HLA-A*0201 [1] was determined as 100 nM. Moreover, the “CEM.T2 % Binding” value in test [2] turned out to be 15%. Also, at HLA-A*0201 [3], the “% Binding” value stood at 56%. In addition, the “CEM.T2 % Residual Binding” value in test [4] is 18%. Moreover, the iScore at HLA-A*0201 [5] was 0.619.

Values taken from patent US9266922B2, “Antigen peptide and uses thereof” (priority 2011, dated 2016).
